What follows are molecules tested against T1, α4β1 integrin (Homo sapiens, UniProt P05556+P13612) (assay: Adhesion of calcein-labeled Ramos cells to CS1 (fibronectin) peptide conjugated ovalbumin). Settings: Table 3; Ramos cell adhesion to CS1 conjugated ovalbumin, 30 minutes at 37° C.
T1 construct: endogenous in cells; host or cells: Ramos cells
Format: cell-based
Protocol: A procedure in which a 26-amino acid peptide containing the CS1 sequence of fibronectin with an N-terminal Cys ([…]) was coupled to maleimide activated ovalbumin was used to determine the efficacy of the compounds synthesized. Bovine serum albumin (BSA) and CS1 conjugated ovalbumin were coated onto 96-well polystyrene plates at 0.5 μg/ml in TBS (50 mM TRIS, pH 7.5; 150 mM NaCl) at 4° C. for 16 hours. The plates were washed three times with TBS and blocked with TBS containing 3% BSA at room temperature for 4 hours. Blocked plates were washed three times in binding buffer (TBS; 1 mM MgCl2; 1 mM CaCl2; 1 mM MnCl2) prior to assay. Ramos cells fluorescently labeled with calcein AM were resuspended in binding buffer (10^7 cells/ml) and diluted 1:2 with same buffer with or without compound. 100 μM of compound was added. The cells were added immediately to the wells (2.5×10^5 cells/well) and incubated for 30 minutes at 37° C. Following three washes with binding buffer, adherent cells were lysed and quantitated using a fluorometer. IC50 is defined as the dose required to give 50% inhibition, measured in μM for Tables 2 and 4. The lower the IC50 value and the greater the percentage of inhibition, the more efficient the compound is at prevention of cell adhesion.

T1 sequence (P13612 34-1032): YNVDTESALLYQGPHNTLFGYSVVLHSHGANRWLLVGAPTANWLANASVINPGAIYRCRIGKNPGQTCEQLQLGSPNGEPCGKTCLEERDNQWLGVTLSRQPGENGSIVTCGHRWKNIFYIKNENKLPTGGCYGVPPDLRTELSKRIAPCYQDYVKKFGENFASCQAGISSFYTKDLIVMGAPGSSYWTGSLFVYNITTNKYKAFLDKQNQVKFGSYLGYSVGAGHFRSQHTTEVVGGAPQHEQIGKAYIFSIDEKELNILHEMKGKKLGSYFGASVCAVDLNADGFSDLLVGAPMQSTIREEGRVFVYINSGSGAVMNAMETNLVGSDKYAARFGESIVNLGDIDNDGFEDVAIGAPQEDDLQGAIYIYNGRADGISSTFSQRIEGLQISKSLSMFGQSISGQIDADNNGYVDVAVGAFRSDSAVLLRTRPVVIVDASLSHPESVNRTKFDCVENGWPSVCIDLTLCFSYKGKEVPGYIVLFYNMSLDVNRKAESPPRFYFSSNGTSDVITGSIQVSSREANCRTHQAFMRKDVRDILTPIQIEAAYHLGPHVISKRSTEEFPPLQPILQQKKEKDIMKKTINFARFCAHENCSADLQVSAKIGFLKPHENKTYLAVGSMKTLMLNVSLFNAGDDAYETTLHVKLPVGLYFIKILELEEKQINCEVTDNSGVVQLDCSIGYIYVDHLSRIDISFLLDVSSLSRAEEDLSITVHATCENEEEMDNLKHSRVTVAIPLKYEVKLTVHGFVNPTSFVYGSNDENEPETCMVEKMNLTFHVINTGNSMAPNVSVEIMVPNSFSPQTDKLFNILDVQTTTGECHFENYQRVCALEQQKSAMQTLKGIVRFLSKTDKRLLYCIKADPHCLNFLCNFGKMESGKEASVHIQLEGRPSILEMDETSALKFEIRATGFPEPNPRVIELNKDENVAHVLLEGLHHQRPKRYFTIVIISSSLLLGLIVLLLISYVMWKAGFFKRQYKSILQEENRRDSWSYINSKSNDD
T1 sequence (P05556 21-798): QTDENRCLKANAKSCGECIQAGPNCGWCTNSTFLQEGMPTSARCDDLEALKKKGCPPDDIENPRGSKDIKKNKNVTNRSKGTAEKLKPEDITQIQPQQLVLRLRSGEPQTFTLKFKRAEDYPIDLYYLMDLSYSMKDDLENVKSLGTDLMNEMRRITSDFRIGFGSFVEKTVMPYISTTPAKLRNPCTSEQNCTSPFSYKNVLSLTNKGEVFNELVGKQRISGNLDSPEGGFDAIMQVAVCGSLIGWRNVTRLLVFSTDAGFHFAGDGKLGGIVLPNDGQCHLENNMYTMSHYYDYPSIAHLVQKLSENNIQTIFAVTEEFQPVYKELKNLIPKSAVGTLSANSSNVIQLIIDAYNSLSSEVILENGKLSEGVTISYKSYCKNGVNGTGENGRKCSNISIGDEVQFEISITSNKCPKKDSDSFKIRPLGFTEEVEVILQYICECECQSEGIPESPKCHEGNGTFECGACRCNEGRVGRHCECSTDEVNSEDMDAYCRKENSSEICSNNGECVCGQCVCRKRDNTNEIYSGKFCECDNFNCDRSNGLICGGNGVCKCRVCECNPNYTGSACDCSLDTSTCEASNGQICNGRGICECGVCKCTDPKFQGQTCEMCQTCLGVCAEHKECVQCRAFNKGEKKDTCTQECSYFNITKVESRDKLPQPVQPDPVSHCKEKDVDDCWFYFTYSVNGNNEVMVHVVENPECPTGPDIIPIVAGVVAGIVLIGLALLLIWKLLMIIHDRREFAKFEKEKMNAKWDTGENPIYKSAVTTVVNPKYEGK

First: Cc1ccc([C@H](CC(=O)O)NC(=O)Nc2cc(C)cn(Cc3ccccc3Cl)c2=O)cc1 [(3S)-3-{[({1-[(2-chlorophenyl)methyl]-5-methyl-2-oxo-1,2-dihydro-3-pyridinyl}amino)carbonyl]amino}-3-(4-methylphenyl)propanoic acid]
Second: Cc1ccc([C@H](CC(=O)O)NC(=O)Nc2c(C)ccn(Cc3ccccc3Cl)c2=O)cc1 [(3S)-3-{[({1-[(2-chlorophenyl)methyl]-4-methyl-2-oxo-1,2-dihydro-3-pyridinyl}amino)carbonyl]amino}-3-(4-methylphenyl)propanoic acid]
The IC50 of the first is 14-fold higher: 70 nM for the first, 5 nM for the second.

`Cc1ccc([C@H](CC(=O)O)NC(=O)Nc2c(-c3ccccn3)nc(C)n(Cc3ccccc3)c2=O)cc1` and `Cc1ccc([C@H](CC(=O)O)NC(=O)Nc2c(Nc3ccccc3)ccn(Cc3ccccc3Cl)c2=O)cc1` are within 1.5-fold of each other in IC50: 25 nM for the first, 20 nM for the second.

Going from `Cc1ccc([C@H](CC(=O)O)NC(=O)Nc2c(N3CCC3)ccn(Cc3ccccc3Cl)c2=O)cc1` [(3S)-3-{[({4-(1-azetanyl)-1-[(2-chlorophenyl)methyl]-2-oxo-1,2-dihydro-3-pyridinyl}amino)carbonyl]amino}-3-(4-methylphenyl)propanoic acid] to `COc1ccc([C@H](CC(=O)O)NC(=O)Nc2c(C)ccn(Cc3ccccc3Cl)c2=O)cc1` [(3S)-3-{[({1-[(2-chlorophenyl)methyl]-4-methyl-2-oxo-1,2-dihydro-3-pyridinyl}amino)carbonyl]amino}-3-[4-(methyloxy)phenyl]propanoic acid], the IC50 falls from 5 nM to 3 nM (1.7-fold). The second is the more potent here.

Same assay, conditions: Table 4; Ramos cell adhesion to CS1 conjugated ovalbumin, 30 minutes at 37° C.

`O=C(O)C[C@H](NC(=O)Nc1cccn(Cc2ccc(F)cc2)c1=O)c1ccc2c(c1)OCO2` and `O=C(O)C[C@@H](NC(=O)Nc1cccn(Cc2ccccc2Cl)c1=O)c1ccc2c(c1)OCO2` are the same in IC50: 2000 nM for the first, 2000 nM for the second.

Compared with `COc1ccc([C@H](CC(=O)O)NC(=O)Nc2cccn(Cc3cccs3)c2=O)cc1`, `O=C(O)C[C@H](NC(=O)Nc1cccn(Cc2cccs2)c1=O)c1cccc(C(F)(F)F)c1` is 3.1-fold higher in IC50: 800 nM for the first, 2500 nM for the second. The first is the more potent here.

Compared with `Cc1ccc([C@H](CC(=O)O)NC(=O)Nc2cn(Cc3ccccc3Cl)ccc2=O)cc1`, `O=C(O)CC(NC(=O)Nc1cccn(Cc2ccccc2Cl)c1=O)c1ccc(Cl)cc1` (stereo not drawn) is 4-fold higher in IC50: 100 nM for the first, 400 nM for the second.

`Cc1ccc([C@H](CC(=O)O)NC(=O)Nc2cccn(Cc3cc(F)ccc3F)c2=O)cc1` and `Cc1ccc([C@H](CC(=O)O)NC(=O)Nc2cccn(Cc3ccccc3[N+](=O)[O-])c2=O)cc1` are within 1.5-fold of each other in IC50: 800 nM for the first, 1000 nM for the second.

Going from `O=C(O)C[C@H](NC(=O)NC1CCCCN(Cc2ccccc2)C1=O)c1ccc2c(c1)OCO2` (stereo partly drawn) to `CCc1ccc([C@H](CC(=O)O)NC(=O)Nc2c(O)ccn(Cc3ccccc3Cl)c2=O)cc1`, the IC50 rises from 15 nM to 25 nM (1.7-fold).

Going from `COc1cc([C@H](CC(=O)O)NC(=O)Nc2cccn(Cc3cccs3)c2=O)cc(OC)c1OC` to `Cc1ccc([C@H](CC(=O)O)NC(=O)Nc2cccn(Cc3nc4ccccc4o3)c2=O)cc1`, the IC50 rises from 300 nM to over 10000 nM. The first is the more potent here.

`Cc1ccc([C@H](CC(=O)O)NC(=O)Nc2c(-c3ccccn3)nc(C)n(Cc3ccccc3)c2=O)cc1` and `COc1ccc([C@H](CC(=O)O)NC(=O)Nc2c(O)ccn(Cc3ccccc3Cl)c2=O)c(C)c1C` are within 1.5-fold of each other in IC50: 25 nM for the first, 35 nM for the second.

Same assay, conditions: Table 5; Ramos cell adhesion to CS1 conjugated ovalbumin; dose required to give 50% inhibition

Compared with `O=C(O)C[C@H](NC(=O)Nc1c(O)ccn(Cc2ccccc2Cl)c1=O)c1cccc(OC(F)(F)F)c1`, `CCc1ccc([C@H](CC(=O)O)NC(=O)Nc2c(O)ccn(Cc3ccccc3Cl)c2=O)cc1CC` is 2.5-fold higher in IC50: 20 nM for the first, 50 nM for the second. The first is the more potent here.

Going from `CCCCc1cn(Cc2ccccc2Cl)c(=O)c(NC(=O)N[C@@H](CC(=O)O)c2ccc(C)cc2)c1O` to `CCCCCc1cn(Cc2ccccc2Cl)c(=O)c(NC(=O)N[C@@H](CC(=O)O)c2ccc(C)cc2)c1O`, the IC50 rises from 25 nM to 40 nM (1.6-fold). The first is the more potent here.

First: CCCc1cn(Cc2ccc(Cl)cc2)c(=O)c(NC(=O)N[C@@H](CC(=O)O)c2ccc(C)cc2)c1O
Second: Cc1ccc([C@H](CC(=O)O)NC(=O)Nc2c(O)ccn(Cc3c(C)cc(C)cc3C)c2=O)cc1
The IC50 of the first is 2-fold lower: 30 nM for the first, 60 nM for the second.

Compared with `COc1c(C)cc([C@H](CC(=O)O)NC(=O)Nc2c(O)ccn(Cc3ccccc3Cl)c2=O)cc1C`, `COc1cc([C@H](CC(=O)O)NC(=O)Nc2c(O)ccn(Cc3ccccc3Cl)c2=O)cc(OC)c1C` [(3S)-3-[({[1-(2-chlorobenzyl)-4-hydroxy-2-oxo-1,2-dihydropyridin-3-yl]amino}carbonyl)amino]-3-(3,5-dimethoxy-4-methylphenyl)propanoic acid] is 12-fold lower in IC50: 35 nM for the first, 3 nM for the second.

`O=C(O)C[C@H](NC(=O)Nc1c(O)ccn(Cc2ccccc2Cl)c1=O)C(c1ccccc1)c1ccccc1` was tested, and the IC50 was 12000 nM.

Same assay, conditions: Table 6; Ramos cell adhesion to CS1 conjugated ovalbumin, 30 minutes at 37° C.

First: CCOc1cccc(Cl)c1Cn1cc(C)c(O)c(NC(=O)N[C@@H](CC(=O)O)c2ccc(C)cc2)c1=O [(3S)-3-[({[1-(2-chloro-6-ethoxybenzyl)-4-hydroxy-5-methyl-2-oxo-1,2-dihydropyridin-3-yl]amino}carbonyl)amino]-3-(4-methylphenyl)propanoic acid]
Second: Cc1ccc([C@H](CC(=O)O)NC(=O)Nc2c(O)c(C(C)C)cn(Cc3ccccc3Cl)c2=O)cc1
The IC50 of the first is 20-fold lower: 3 nM for the first, 60 nM for the second. The first is the more potent here.

Going from `O=C(O)CC(NC(=O)Nc1c(O)ccn(Cc2ccccc2Cl)c1=O)c1cccs1` (stereo not drawn) to `CC(C)Oc1cccc([C@H](CC(=O)O)NC(=O)Nc2c(O)ccn(Cc3ccccc3Cl)c2=O)c1` [(3S)-3-[({[1-(2-chlorobenzyl)-4-hydroxy-2-oxo-1,2-dihydropyridin-3-yl]amino}carbonyl)amino]-3-(3-isopropoxyphenyl)propanoic acid], the IC50 falls from 30 nM to 3 nM (10-fold). The second is the more potent here.

`Cc1ccc([C@H](CC(=O)O)NC(=O)Nc2c(O)c3c(n(Cc4ccccc4Cl)c2=O)CCC3)cc1C` and `CCCc1cn(Cc2c(Cl)cccc2OC)c(=O)c(NC(=O)N[C@@H](CC(=O)O)c2ccc(C)c(C)c2)c1O` are within 1.5-fold of each other in IC50: 18 nM for the first, 17 nM for the second.

Going from `CCCc1cn(Cc2c(Cl)cccc2OC)c(=O)c(NC(=O)N[C@@H](CC(=O)O)c2ccc(C)c(OC)c2)c1O` to `Cc1cn(Cc2ccccc2Cl)c(=O)c(NC(=O)N[C@@H](CC(=O)O)c2cccc(OC(C)C)c2)c1O`, the IC50 falls from 15 nM to 3 nM (5-fold). The second is the more potent here.

Work on `CCOc1ccc([C@H](CC(=O)O)NC(=O)Nc2c(O)c3ccccc3n(Cc3ccccc3Cl)c2=O)cc1OCC` yielded an IC50 of 4 nM.

Same assay, conditions: Table 7; Ramos cell adhesion to CS1 conjugated ovalbumin; dose required to give 50% inhibition

Compared with `CC1(C)Cc2cc([C@H](CC(=O)O)NC(=O)Nc3c(O)c4c(n(Cc5ccccc5Cl)c3=O)CCC4)ccc2O1`, `O=C(O)C[C@H](NC(=O)Nc1c(O)c2c(n(Cc3ccccc3Cl)c1=O)CCC2)c1ccc2c(c1)CCC2` is 2.7-fold higher in IC50: 3 nM for the first, 8 nM for the second. The first is the more potent here.

`O=C(O)C[C@H](NC(=O)Nc1c(O)c2c(n(Cc3ccccc3Cl)c1=O)CCC2)c1ccc(OC(F)(F)F)cc1` and `O=C(O)C[C@H](NC(=O)Nc1c(O)c2c(n(Cc3ccccc3Cl)c1=O)CCC2)c1cccc(C(F)(F)F)c1` are within 1.5-fold of each other in IC50: 13 nM for the first, 10 nM for the second.

Compared with `O=C(O)C[C@H](NC(=O)Nc1c(O)c2c(n(Cc3ccccc3Cl)c1=O)CCC2)c1cccc(OCC2CC2)c1` [(3S)-3-[({[1-(2-chlorobenzyl)-4-hydroxy-2-oxo-2,5,6,7-tetrahydro-1H-cyclopenta[b]pyridin-3-yl]amino}carbonyl)amino]-3-[3-(cyclopropylmethoxy)phenyl]propanoic acid], `CCOc1cc([C@H](CC(=O)O)NC(=O)Nc2c(O)c3c(n(Cc4ccccc4Cl)c2=O)CCC3)ccc1Cl` is 3.3-fold higher in IC50: 9 nM for the first, 30 nM for the second. The first is the more potent here.

First: CCN(CC)c1cccc([C@H](CC(=O)O)NC(=O)Nc2c(O)c3c(n(Cc4c(C)cccc4Cl)c2=O)CCC3)c1
Second: CCC(CC)Oc1cccc([C@H](CC(=O)O)NC(=O)Nc2c(O)c3c(n(Cc4c(C)cccc4Cl)c2=O)CCC3)c1
The IC50 of the first is 2.2-fold lower: 10 nM for the first, 22 nM for the second.

Compared with `Cc1ccccc1[C@H](CC(=O)O)NC(=O)Nc1c(O)c(C)cn(Cc2ccccc2Cl)c1=O`, `Cc1cn(Cc2ccccc2Cl)c(=O)c(NC(=O)N[C@@H](CC(=O)O)c2ccccc2F)c1O` is 27-fold lower in IC50: 267 nM for the first, 10 nM for the second.

`Cc1cn(Cc2ccccc2Cl)c(=O)c(NC(=O)N[C@@H](CC(=O)O)c2ccccc2)c1O` and `COc1ccccc1-c1cccc([C@H](CC(=O)O)NC(=O)Nc2c(O)c(C)cn(Cc3ccccc3Cl)c2=O)c1` are the same in IC50: 15 nM for the first, 15 nM for the second.

Going from `Cc1cn(Cc2c(C)cccc2Cl)c(=O)c(NC(=O)NC(CC(=O)O)c2ccc(S(C)(=O)=O)cc2)c1O` (stereo not drawn) to `CCOc1cccc(Cl)c1Cn1cc(C)c(O)c(NC(=O)N[C@@H](CC(=O)O)c2cccc(C(F)(F)F)c2)c1=O`, the IC50 falls from 43 nM to 3 nM (14-fold).

Going from `O=C(O)C[C@H](NC(=O)Nc1c(O)c2c(n(Cc3ccccc3Cl)c1=O)CCC2)c1cccc(-c2ccccc2)c1` to `Cc1cccc(Cl)c1Cn1c2c(c(O)c(NC(=O)N[C@@H](CC(=O)O)c3cccc(OC(F)F)c3)c1=O)CCC2`, the IC50 falls from 17 nM to 3 nM (5.7-fold). The second is the more potent here.

`CCOc1cccc(Cl)c1Cn1c(C)c(C)c(O)c(NC(=O)N[C@@H](CC(=O)O)c2cccc(OC(C)C)c2)c1=O` [(3S)-3-[({[1-(2-chloro-6-ethoxybenzyl)-4-hydroxy-5,6-dimethyl-2-oxo-1,2-dihydropyridin-3-yl]amino}carbonyl)amino]-3-(3-isopropoxyphenyl)propanoic acid] and `CCOc1cccc(Cl)c1Cn1c(C)c(CC)c(O)c(NC(=O)N[C@@H](CC(=O)O)c2ccccc2)c1=O` are within 1.5-fold of each other in IC50: 3 nM for the first, 4 nM for the second.

For `CCOc1cccc(Cl)c1Cn1c2c(c(O)c(NC(=O)N[C@@H](CC(=O)O)c3cccc(OC4CC4)c3)c1=O)CCC2` [(3S)-3-[({[1-(2-chloro-6-ethoxybenzyl)-4-hydroxy-2-oxo-2,5,6,7-tetrahydro-1H-cyclopenta[b]pyridin-3-yl]amino}carbonyl)amino]-3-[3-(cyclopropyloxy)phenyl]propanoic acid], the IC50 was 2 nM.

Source: patent publication US6972296B2, “Carboxylic acid derivatives that inhibit the binding of integrins to their receptors” (Encysive Pharmaceuticals Inc., priority 1999, dated 2005)
